Test results from US20230355749A1, “Immunomodulatory Compounds And Use Thereof For The Treatment And/Or Prevention Of Infectious Diseases” (AC […], priority 2020, published 2023).
Structures can show the parent of a compound that is named as a salt.

How the values were obtained:
[1] = tested on: immature DC (CD11c+MHC-II int); assay: Endocytosis (uptake) of OVA-AF647 protein by immature DC; type: cell-based, C57BL/6 mice; details: pretreated 3 hours (ACB1801s 20 μM), OVA-AF647 2 μg/ml; for percentage of OVA-AF647+ cells: 3 mice, vehicle 71.00+/−0.058; for Median Fluorescence Intensity of OVA-AF647 within the positive population (amount of protein taken up): vehicle 5533.33+/−60.26, P≤0.0001
[2] = tested on: Bone-marrow derived dendritic cells (BMDC); assay: Co-stimulatory marker and MHC surface expression by FACS in BMDC stimulated with LPS and OVA257-264 peptide; type: cell-based, C57BL/6 mice; details: pre-treated 1 hour, then LPS 100 ng/ml + OVA257-264 peptide 10 μM for 24 hours; live CD11c+ population
Description: (§1) Cells were analysed for expression of co-stimulatory markers and MHC complexes at the cell surface by FACS, gated on the live CD11c+ population. Panel A) Median fluorescence intensity ([…]) of CD40, CD80 and CD86 expression. Panel B) Overall expression of MHC-II, given by the expression of I-Ab. Panel C) Relative surface expression of MHC-I (H2-Kb): OVA257-264 peptide complexes over the total surface expression of H2-Kb. Panel D) Quantification of cytokine secretion by ELISA. Data is expressed as the mean+/−standard error of the mean (SEM). Statistical significance was determined by a student's t-test with *p≤0.05.
(§2) LPS (100 ng/ml) was used in this instance as a model Toll-like Receptor ligand for a pathogen and a surrogate for the licensed TLR-specific adjuvant-MPLA.

[3] = tested on: Bone-marrow derived dendritic cells (BMDC); assay: Cytokine secretion by ELISA in BMDC stimulated with LPS and OVA257-264 peptide; type: cell-based, C57BL/6 mice; details: LPS 100 ng/ml + OVA257-264 peptide 10 μM, after 24 hours
Description: as §1, §2

LPS-matured BMDC = details: DC matured with 100 ng/ml LPS 36 h; pretreated 1 hour, Eα55-68 pulse 3 hours, analyzed after 24 hours; live CD11c+MHC-II(I-Ab) high; vehicle 1553.33±54.93, p=0.03
Description: Specifically, these complexes were recognized using fluorochrome-labelled monoclonal antibodies of Y-Ae for I-Ab: Eα55-68 complexes and 25-D1.16 for H2-Kb: OVA257-264 complexes. In all experiments, BMDC were differentiated in vitro from bone marrow precursor cells of C57BL/6 mice using GM-CSF and IL-4 at 250 and 5 UI/ml, respectively.

| Structure (SMILES) | percentage of OVA-AF647+ cells [1] | Median Fluorescence Intensity of OVA-AF647 within the positive population (amount of protein taken up) [1] | expression of CD80/CD86 co-stimulatory markers [2] | overall expression of surface MHC-II (I-Ab) [2] | levels of pro-inflammatory cytokines (IL-6, and TNF) [3] | Median Fluorescence Intensity (MFI) of I-Ab: Eα55-68 specific complexes (LPS-matured BMDC) |
| --- | --- | --- | --- | --- | --- | --- |
| Cc1[nH]ccc2c1[nH]c1cc(=O)ccc12 [ACB1804s, harmol HCl] | 73.867+/−0.751 | 6628+/−98.475 |  |  |  |  |
| COc1ccc2c(c1)[nH]c1c(C)nccc12.Cl [ACB1801s, harmine HCl] | 72.37+/−0.94 | 6725.67+/−41.450 | increased | increased | reduced | 1742.33±15.62 |
